According to ChEMBL document CHEMBL4411303, “Synthesis of tetrazole derivatives bearing pyrrolidine scaffold and evaluation of their antifungal activity against Candida albicans” (Eur J Med Chem, 2019):

Assays:
Type in all cases: functional
[1] = system: Candida albicans; assay: Antifungal activity against Candida albicans ATCC 90028 assessed as planktonic growth inhibition at 41.9 uM after 48 hrs by M27-A3 protocol based method relative to control; conditions: ATCC 90028, 48 h, read-out: GI
[2] = system: Candida albicans; assay: Antifungal activity against Candida albicans ATCC 90028 assessed as planktonic growth inhibition at 0.08 uM after 48 hrs by M27-A3 protocol based method relative to control; conditions: ATCC 90028, 48 h, read-out: GI
[3] = system: Candida albicans; assay: Antifungal activity against Candida albicans ATCC 90028 assessed as planktonic growth inhibition at 10.47 uM after 48 hrs by M27-A3 protocol based method relative to control; conditions: ATCC 90028, 48 h, read-out: GI
[4] = system: Candida albicans; assay: Antifungal activity against Candida albicans ATCC 90028 assessed as planktonic growth inhibition at 2.62 uM after 48 hrs by M27-A3 protocol based method relative to control; conditions: ATCC 90028, 48 h, read-out: GI
[5] = system: Candida albicans; assay: Antifungal activity against Candida albicans ATCC 90028 assessed as planktonic growth inhibition at 0.65 uM after 48 hrs by M27-A3 protocol based method relative to control; conditions: ATCC 90028, 48 h, read-out: GI
[6] = system: Candida albicans; assay: Antifungal activity against Candida albicans ATCC 90028 assessed as planktonic growth inhibition at 1.31 uM after 48 hrs by M27-A3 protocol based method relative to control; conditions: ATCC 90028, 48 h, read-out: GI
[7] = system: Candida albicans; assay: Antifungal activity against Candida albicans ATCC 90028 assessed as planktonic growth inhibition at 5.24 uM after 48 hrs by M27-A3 protocol based method relative to control; conditions: ATCC 90028, 48 h, read-out: GI
[8] = system: Candida albicans; assay: Fungicidal activity against Candida albicans ATCC 90028 assessed as log reduction in fungal load incubated for 48 hrs followed by replating on sabouraud dextrose agar plate and measured after 48 hrs
[9] = system: Candida albicans; assay: Antifungal activity against Candida albicans ATCC 90028 assessed as planktonic growth inhibition at 0.16 uM after 48 hrs by M27-A3 protocol based method relative to control; conditions: ATCC 90028, 48 h, read-out: GI
[10] = system: Candida albicans; assay: Antifungal activity against Candida albicans ATCC 90028 assessed as planktonic growth inhibition at 0.33 uM after 48 hrs by M27-A3 protocol based method relative to control; conditions: ATCC 90028, 48 h, read-out: GI
[11] = system: Candida albicans; assay: Antifungal activity against Candida albicans ATCC 90028 assessed as planktonic growth inhibition at 20.95 uM after 48 hrs by M27-A3 protocol based method relative to control; conditions: ATCC 90028, 48 h, read-out: GI
[12] = system: Candida albicans; assay: Antifungal activity against Candida albicans ATCC 90028 assessed as planktonic growth inhibition at 10.87 uM after 48 hrs by M27-A3 protocol based method relative to control; conditions: ATCC 90028, 48 h, read-out: GI
[13] = system: Candida albicans; assay: Antifungal activity against Candida albicans ATCC 90028 assessed as planktonic growth inhibition at 2.72 uM after 48 hrs by M27-A3 protocol based method relative to control; conditions: ATCC 90028, 48 h, read-out: GI
[14] = system: Candida albicans; assay: Antifungal activity against Candida albicans ATCC 90028 assessed as planktonic growth inhibition at 5.44 uM after 48 hrs by M27-A3 protocol based method relative to control; conditions: ATCC 90028, 48 h, read-out: GI
[15] = system: Candida albicans; assay: Antifungal activity against Candida albicans ATCC 90028 assessed as planktonic growth inhibition at 0.68 uM after 48 hrs by M27-A3 protocol based method relative to control; conditions: ATCC 90028, 48 h, read-out: GI
[16] = system: Candida albicans; assay: Antifungal activity against Candida albicans ATCC 90028 assessed as planktonic growth inhibition at 1.36 uM after 48 hrs by M27-A3 protocol based method relative to control; conditions: ATCC 90028, 48 h, read-out: GI
[17] = system: Candida albicans; assay: Antifungal activity against Candida albicans ATCC 90028 assessed as planktonic growth inhibition at 0.17 uM after 48 hrs by M27-A3 protocol based method relative to control; conditions: ATCC 90028, 48 h, read-out: GI
[18] = system: Candida albicans; assay: Antifungal activity against Candida albicans ATCC 90028 assessed as planktonic growth inhibition at 21.75 uM after 48 hrs by M27-A3 protocol based method relative to control; conditions: ATCC 90028, 48 h, read-out: GI
[19] = system: Candida albicans; assay: Antifungal activity against Candida albicans ATCC 90028 assessed as planktonic growth inhibition at 43.49 uM after 48 hrs by M27-A3 protocol based method relative to control; conditions: ATCC 90028, 48 h, read-out: GI
[20] = system: Candida albicans; assay: Antifungal activity against Candida albicans ATCC 90028 assessed as planktonic growth inhibition at 0.34 uM after 48 hrs by M27-A3 protocol based method relative to control; conditions: ATCC 90028, 48 h, read-out: GI

Row | SMILES | inhibition of growth at 41.9 µM [1] [%] | inhibition of growth at 0.08 µM [2] [%] | inhibition of growth at 10.47 µM [3] [%] | inhibition of growth at 2.62 µM [4] [%] | inhibition of growth at 0.65 µM [5] [%] | inhibition of growth at 1.31 µM [6] [%] | inhibition of growth at 5.24 µM [7] [%] | log(activity) [8] | inhibition of growth at 0.16 µM [9] [%] | inhibition of growth at 0.33 µM [10] [%] | inhibition of growth at 20.95 µM [11] [%] | inhibition of growth at 10.87 µM [12] [%] | inhibition of growth at 2.72 µM [13] [%] | inhibition of growth at 5.44 µM [14] [%] | inhibition of growth at 0.68 µM [15] [%] | inhibition of growth at 1.36 µM [16] [%] | inhibition of growth at 0.17 µM [17] [%] | inhibition of growth at 21.75 µM [18] [%] | inhibition of growth at 43.49 µM [19] [%] | inhibition of growth at 0.34 µM [20] [%]
1 | Cc1ccc(C2CCCN2CCCn2nnc(-c3ccccc3Cl)n2)cc1 (stereo not given) | 99.6 | 98.8 | 99.5 | 99.3 | 99.2 | 99.2 | 99.4 | -0.2 | 98.9 | 99.2 | 99.5 | – | – | – | – | – | – | – | – | –
2 | Cc1cccc(C2CCCN2CCCn2nnc(-c3ccccc3Cl)n2)c1 (stereo not given) | 99.8 | 99.1 | 99.6 | 99.3 | 99.2 | 99.2 | 99.4 | -0.5 | 99.1 | 99.2 | 99.7 | – | – | – | – | – | – | – | – | –
3 | Clc1ccccc1-c1nnn(CCCN2CCCC2c2ccccc2)n1 (stereo not given) | – | 98.8 | – | – | – | – | – | -0.3 | – | – | – | 99.2 | 99.1 | 99.1 | 99 | 99.1 | 98.9 | 99.4 | 99.5 | 99
4 | Clc1ccc(-c2nnn(CCCN3CCCC3c3ccccc3)n2)cc1 (stereo not given) | – | 99.3 | – | – | – | – | – | -0.5 | – | – | – | 99.2 | 99.4 | 99.3 | 99.3 | 99.4 | 99.3 | 99.2 | 99.1 | 99.3
5 | Clc1ccc(C2CCCN2CCCn2nnc(-c3ccccc3)n2)cc1 (stereo not given) | – | 99.4 | – | – | – | – | – | -1.4 | – | – | – | 99.2 | 99.2 | 99.3 | 99.4 | 99.4 | 99.3 | 99.4 | 99.6 | 99.4
